For assay [1], the system named is OGA in HEK293 cells inducible for P301L mutant human Tau (isoform 2N4R). Put plainly: OGA cellular assay: immunocytochemical detection of O-GlcNAcylated proteins (CTD110.6 antibody). The following applies: 6 hours incubation; for Emax / EC50: Homo sapiens, HEK293, 6 h; for EC50: read-out: Cellular hOGA, pEC50 (converted). It counts as cell-based. The procedure: HEK293 cells inducible for P301L mutant human Tau (isoform 2N4R) were established at Janssen. Thiamet-G was used for both plate validation (high control) and as reference compound (reference EC50 assay validation). OGA inhibition is evaluated through the immunocytochemical (ICC) detection of O-GlcNAcylated proteins by the use of a monoclonal antibody (CTD110.6; Cell Signaling, #9875) detecting 0-GlcNAcylated residues as previously described (Dorfmueller et al. 2010 Chemistry & biology, 17:1250). Inhibition of OGA will result in an increase of O-GlcNAcylated protein levels resulting in an increased signal in the experiment. Cell nuclei are stained with Hoechst to give a cell culture quality control and a rough estimate of immediate compounds toxicity, if any. ICC pictures are imaged with a Perkin Elmer Opera Phenix plate microscope and quantified with the provided software Perkin Elmer Harmony 4.1.
Cells were propagated in DMEM high Glucose (Sigma, #D5796) following standard procedures. 2 days before the cell assay cells are split, counted and seeded in Poly-D-Lysine (PDL) coated 96-wells (Greiner, #655946) plate at a cell density of 12,000 cells per cm^2 (4,000 cells per well) in 100p of Assay Medium (Low Glucose medium is used to reduce basal levels of GlcNAcylation) (Park et al. 2014 The Journal of biological chemistry 289:13519). At the day of compound test medium from assay plates was removed and replenished with 90 µl of fresh Assay Medium. 10p of compounds at a 10 fold final concentration were added to the wells. Plates were centrifuged shortly before incubation in the cell incubator for 6 hours. DMSO concentration was set to 0.2%. Medium is discarded by applying vacuum. For staining of cells medium was removed and cells washed once with 100 μl D-PBS (Sigma, #D8537). From next step onwards unless other stated assay volume was always 50p and incubation was performed without agitation and at room temperature. Cells were fixed in 50 μl of a 4% paraformaldehyde (PFA, Alpha aesar, #043368) PBS solution for 15 minutes at room temperature. […] Before analysis samples were washed 2 times manually for 5 minutes in ICC base buffer.
Imaging is performed using Perkin Elmer Phenix Opera using a water 20× objective and recording 9 fields per well. Intensity readout at 488 nm is used as a measure of O-GlcNAcylation level of total proteins in wells. To assess potential toxicity of compounds nuclei were counted using the Hoechst staining. IC50-values are calculated using parametric non-linear regression model fitting. As a maximum inhibition Thiamet G at a 200 uM concentration is present on each plate. In addition, a concentration response of Thiamet G is calculated on each plate.

Assay [2] deals with T1, recombinant human Meningioma Expressed Antigen 5 (MGEA5), also referred to as O-GlcNAcase (OGA) (Homo sapiens, UniProt O60502).
T1 construct: Full length OGA enzyme was purchased at OnGene (cat #TP322411); purchased OnGene (so in the source)
T1 sequence (O60502 1-916): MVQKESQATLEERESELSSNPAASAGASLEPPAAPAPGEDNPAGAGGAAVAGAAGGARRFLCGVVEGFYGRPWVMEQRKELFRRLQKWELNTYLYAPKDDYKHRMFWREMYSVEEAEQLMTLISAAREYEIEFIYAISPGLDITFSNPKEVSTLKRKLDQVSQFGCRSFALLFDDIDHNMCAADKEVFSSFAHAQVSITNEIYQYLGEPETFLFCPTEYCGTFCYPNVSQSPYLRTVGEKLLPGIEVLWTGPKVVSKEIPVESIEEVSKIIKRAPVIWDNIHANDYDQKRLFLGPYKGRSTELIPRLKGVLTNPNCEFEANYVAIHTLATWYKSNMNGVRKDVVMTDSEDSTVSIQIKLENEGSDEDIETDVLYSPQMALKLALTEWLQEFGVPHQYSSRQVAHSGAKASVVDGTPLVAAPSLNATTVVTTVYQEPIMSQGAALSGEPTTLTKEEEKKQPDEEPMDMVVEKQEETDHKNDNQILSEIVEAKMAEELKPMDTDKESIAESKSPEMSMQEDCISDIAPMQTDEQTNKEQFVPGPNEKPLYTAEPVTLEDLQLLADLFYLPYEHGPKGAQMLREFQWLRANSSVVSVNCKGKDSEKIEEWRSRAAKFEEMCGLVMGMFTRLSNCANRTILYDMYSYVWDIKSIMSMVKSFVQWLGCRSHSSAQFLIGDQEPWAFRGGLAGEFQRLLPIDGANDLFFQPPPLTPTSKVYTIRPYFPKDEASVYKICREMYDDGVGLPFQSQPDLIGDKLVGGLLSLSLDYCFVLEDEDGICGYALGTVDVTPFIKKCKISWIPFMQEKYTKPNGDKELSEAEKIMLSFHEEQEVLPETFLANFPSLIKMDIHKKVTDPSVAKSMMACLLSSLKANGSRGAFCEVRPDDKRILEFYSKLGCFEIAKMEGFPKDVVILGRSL
Nature of the assay: OGA biochemical assay: inhibition of hydrolysis of fluorescein mono-ß-D-N-Acetyl-Glucosamine (FM-GlcNAc), fluorescence readout. The note with it: FM-GlcNAc substrate; for Emax: read-out: Enzymatic Emax (%); for IC50: read-out: Enzymatic hOGA, pIC50 (converted). An excerpt:
The assay is based on the inhibition of the hydrolysis of fluorescein mono-ß-D-N-Acetyl-Glucosamine (FM-GlcNAc) (Mariappa et al. 2015, Biochem J 470:255) by the recombinant human Meningioma Expressed Antigen 5 (MGEA5), also referred to as O-GlcNAcase (OGA). The hydrolysis FM-GlcNAc (Marker Gene technologies, cat #M1485) results in the formation of ß-D-N-glucosamineacetate and fluorescein. The fluorescence of the latter can be measured at excitation wavelength 485 nm and emission wavelength 538 nm. An increase in enzyme activity results in an increase in fluorescence signal. Full length OGA enzyme was purchased at OnGene (cat #TP322411). The enzyme was stored in 25 mM Tris.HCl, pH 7.3, 100 mM glycine, 10% glycerol at −20° C. Thiamet G and GlcNAcStatin were tested as reference compounds (Yuzwa et al. 2008 Nature Chemical Biology 4:483; Yuzwa et al. 2012 Nature Chemical Biology 8:393). The assay was performed in 200 mM Citrate/phosphate buffer supplemented with 0.005% Tween-20. 35.6 g Na2HPO4 2 H2O (Sigma, #C0759) were dissolved in 1 L water to obtain a 200 mM solution. 19.2 g citric acid (Merck, #1.06580) was dissolved in 1 L water to obtain a 100 mM solution. pH of the sodium phosphate solution was adjusted with the citric acid solution to 7.2. The buffer to stop the reaction consists of a 500 mM Carbonate buffer, pH 11.0. 734 mg FM-GlcNAc were dissolved in 5.48 mL DMSO to obtain a 250 mM solution and was stored at −20° C. OGA was used at a 2 nM concentration and FM-GlcNAc at a 100 uM final concentration. Dilutions were prepared in assay buffer. 50 nl of a compound dissolved in DMSO was dispensed on Black Proxiplate™ 384 Plus Assay plates (Perkin Elmer, #6008269) and 3 μl fl-OGA enzyme mix added subsequently. Plates were pre-incubated for 60 min at room temperature and then 2 μl FM-GlcNAc substrate mix added. […] Plates were briefly centrifuged for 1 min at 1000 rpm and incubate at room temperature for 6 h. To stop the reaction 5 μl STOP buffer were added and plates centrifuge again 1 min at 1000 rpm. Fluorescence was quantified in the Thermo Scientific Fluoroskan Ascent or the PerkinElmer EnVision with excitation wavelength 485 nm and emission wavelength 538 nm. For analysis a best-fit curve is fitted by a minimum sum of squares method. From this an IC50 value and Hill coefficient was obtained. High control (no inhibitor) and low control (saturating concentrations of standard inhibitor) were used to define the minimum and maximum values.

By Emax is commonly meant the maximal effect, on the per cent scale that the assay sets. In assay [1] (maximum = Thiamet G 200 uM), `Cc1cncc(C)c1Nc1nccc2c1ccn2CC1CC1` [Compound 41] gave an Emax of 71%. The EC50 in assay [1] is 95.5 nM. Further, in assay [2], the Emax is 101% and the IC50 is 24.5 nM.
On the same counts, the results for `CCCCn1ccc2c(Nc3c(F)cncc3C3CC3)nccc21` [Compound 43] are 50%, 676 nM, 99% and 24 nM.
On the same counts, the results for `Cc1cccc(S(C)(=O)=O)c1Nc1nccc2c1ccn2CCC1CC1` [Compound 195] are 95.3%, 25.1 nM, 102% and 1.35 nM.
As for `Cc1ccnc(C)c1Nc1nccc2c1ccn2CC(F)(F)C1CC1` [Compound 23], the Emax in assay [1] (maximum = Thiamet G 200 uM) was determined as 97%. Besides, in assay [1], the EC50 was 2.95 nM. In addition, in assay [2], the “Enzymatic hOGA; pIC50” value is recorded as 8.84 and the Emax stood at 102%.
Consider `Cc1cncc(C)c1Nc1nccc2c1ccn2CCC(C)C` [Compound 48], for which the Emax in assay [1] (maximum = Thiamet G 200 uM) was 86%; in assay [2] it was 102%. In addition, in assay [1], the EC50 was 30.9 nM. Moreover, the IC50 in assay [2] was 10.7 nM.
For `CCCCn1ccc2c(Nc3c(C)cc(C(=O)OC)cc3C)nccc21` [Compound 64] the same measures were 80%, 102%, 24.5 nM and 3.98 nM.
Consider `CCCCn1ccc2c(Nc3c(C)ccc4cccnc34)nccc21` [Compound 15], for which the results for the Emax in assay [1] (maximum = Thiamet G 200 uM) and in assay [2] were 71% and 101%, respectively. The EC50 in assay [1] is 562 nM. The “Enzymatic hOGA; pIC50” value in assay [2] is reported as 7.18.
On to `CCCCn1ccc2c(Nc3c(Cl)cccc3Cl)ncc(F)c21` [Compound 74], for which the Emax in assay [1] (maximum = Thiamet G 200 uM) amounted to 40%. The EC50 in assay [1] was above 1000 nM. Besides, in assay [2], the Emax was 100% and the IC50 was 28.8 nM.
In turn, `Clc1cccc(Cl)c1Nc1nccc2c1ccn2CCC1COC1` [Compound 122] registered an Emax in assay [1] (maximum = Thiamet G 200 uM) of 84.1%. For the same molecule, in assay [1], the EC50 was 263 nM. Besides, in assay [2], the “Enzymatic Emax (%)” value is 103.22% and the “Enzymatic hOGA; pIC50” value is recorded as 7.72.
As for `CC(C)CCn1ccc2c(Nc3c(Cl)cccc3Cl)nccc21` [Compound 60], the results for the Emax in assay [1] (maximum = Thiamet G 200 uM) and in assay [2] were 86% and 102%, respectively. The EC50 in assay [1] was 55 nM. For the same molecule, the IC50 in assay [2] was 3.63 nM.
On the same counts, the results for `Cc1ccnc(C(C)C)c1Nc1nccc2c1ccn2CC(F)(F)C1CC1` [Compound 85] are 94%, 104%, 0.708 nM and 0.977 nM.
On the same counts, the results for `Cc1cc(C(F)(F)F)cc(C)c1Nc1nccc2c1ccn2CC(F)(F)C(C)C` [Compound 176] are 101%, 103%, 5.5 nM and 1.55 nM.
For the molecule `Cc1cc(C(F)(F)F)cc(C)c1Nc1nccc2c1ccn2CC1CC(F)(F)C1` [Compound 118], in assay [1] (maximum = Thiamet G 200 uM), the Emax came to 71.7%. For the same molecule, the EC50 in assay [1] was 74.1 nM. In addition, in assay [2], the “Enzymatic hOGA; pIC50” value is recorded as 7.89 and the Emax worked out at 102%.
For `Cc1cc(C)c(Nc2nccc3c2ccn3CC(F)(F)C(C)C)c(OC(F)F)n1` [Compound 179], the Emax in assay [1] (maximum = Thiamet G 200 uM) is 80.9%; in assay [2], 102%. Further, the EC50 in assay [1] was 20.4 nM. Further, the IC50 in assay [2] is 2.04 nM.
For `CC[C@@H](O)Cn1ccc2c(Nc3c(C)cc(F)cc3C)nccc21` [Compound 145a], in assay [1] (maximum = Thiamet G 200 uM), the maximal response (Emax) came out at 81.2%. The EC50 in assay [1] is 56.2 nM. In assay [2], the “Enzymatic hOGA; pIC50” value is reported as 7.79 and the Emax was found to be 100%.
Regarding `Clc1cccc(Cl)c1Nc1nccc2c1ccn2CC1COC1` [Compound 35], the Emax is 20% in assay [1] (maximum = Thiamet G 200 uM) and 100% in assay [2]. The EC50 in assay [1] was above 1000 nM. Besides, in assay [2], the IC50 is 148 nM.
`Cc1ccnc(C)c1Nc1nccc2c1ccn2CC1CCO1` (single isomer, unassigned) [Compound 25b]: in assay [1], the “Cellular hOGA; pEC50” value is on record as 7.63. The “Cellular Emax (%)” value in assay [1] (maximum = Thiamet G 200 uM) turned out to be 90%. Further, in assay [2], the “Enzymatic Emax (%)” value came to 101% and the IC50 was 4.57 nM.
`Cc1cc(C)c(Nc2nccc3c2ccn3CC(C)(F)F)c(OC(F)F)n1` [Compound 156] displayed an Emax in assay [1] (maximum = Thiamet G 200 uM) of 70.9%. Further, the EC50 in assay [1] was 45.7 nM. In assay [2], the “Enzymatic hOGA; pIC50” value turned out to be 8.07 and the Emax was determined as 102%.
In turn, `Cc1cc(-c2cnn(C)c2)cc(C)c1Nc1nccc2c1ccn2CC(C)(F)F` [Compound 154] came in with an Emax in assay [1] (maximum = Thiamet G 200 uM) of 86.2%. Besides, the EC50 in assay [1] is 3.47 nM. In addition, in assay [2], the “Enzymatic hOGA; pIC50” value came to 8.67 and the Emax turned out to be 101%.

The values above are taken from US20210277003A1, “OGA INHIBITOR COMPOUNDS” (Janssen Pharmaceutica NV, priority 2018, published 2021).
